Read-outs that look alike come from different tables or passages of the source.
Target: T1, SFRP-1 (Homo sapiens, UniProt Q8N474)
T1 sequence (Q8N474 32-314): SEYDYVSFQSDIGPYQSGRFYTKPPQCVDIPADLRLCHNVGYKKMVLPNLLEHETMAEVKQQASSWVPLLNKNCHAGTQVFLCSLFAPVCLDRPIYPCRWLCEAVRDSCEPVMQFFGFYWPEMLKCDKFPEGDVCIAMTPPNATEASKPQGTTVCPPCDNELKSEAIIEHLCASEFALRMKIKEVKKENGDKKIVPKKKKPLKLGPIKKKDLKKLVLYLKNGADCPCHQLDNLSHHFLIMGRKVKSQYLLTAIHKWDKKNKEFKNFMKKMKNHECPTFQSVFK
Experiment: Cell-based assay for in vitro measurement of SFRP-1/SARP2 antagonist activity (U2OS cells co-transfected with 16x TCF-tk-Luciferase reporter, Wnt and hSFRP-1);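 note: U2OS cells co-transfected with a TCF-tk luciferase reporter, a Wnt vector, hSFRP-1 or empty vector and CMV-βgal, luciferase luminescence read in cell lysates alongside βgal activity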
Conditions: for fold induction at 15 µM / fold induction at 10 µM / fold induction at 30 µM: U2OS; for fold induction at 10 µM: read-out: Fold Induction with SFRP-1, U2OS cells, single dose 10 μM, luciferase reporter, fold induction over SFRP-1 control

[1] = read-out: Fold Induction with SFRP-1, Conc 15 μM, with SFRP-1, fold induction over SFRP-1 control, single dose
[2] = read-out: Fold Induction without SFRP-1, Conc 15 μM, without SFRP-1, single dose
[3] = read-out: Fold Induction with SFRP-1, Conc 15 μM, single dose, luciferase reporter, fold induction over SFRP-1 control, cells with SFRP-1
[4] = read-out: Fold Induction without SFRP-1, Conc 15 μM, single dose, luciferase reporter, cells without SFRP-1 (specificity control)
[5] = read-out: Fold Induction with SFRP-1, Conc 30 μM, with SFRP-1, fold induction over SFRP-1 control, single dose
[6] = read-out: Fold Induction without SFRP-1, Conc 30 μM, without SFRP-1, single dose

Row | SMILES | fold induction at 15 µM [1] | fold induction at 15 µM [2] | further results
1 | O=S(=O)(NCCN1CCOCC1)c1cc(S(=O)(=O)c2ccccc2)ccc1Cl [Example 335, 2-chloro-N-(2-morpholin-4-ylethyl)-5-(phenylsulfonyl)benzenesulfonamide] | 2.2 | 1 | 
2 | Cc1c(S(=O)(=O)NCCN2CCOCC2)cccc1S(=O)(=O)c1ccccc1 [Example 495, 2-methyl-N-(2-morpholin-4-ylethyl)-3-(phenylsulfonyl)benzenesulfonamide] |  |  | fold induction at 15 µM [3]: 1.1; fold induction at 15 µM [4]: 1.3
3 | COCCNS(=O)(=O)c1cc(S(=O)(=O)c2ccccc2)ccc1OC [Example 240, 2-methoxy-N-(2-methoxyethyl)-5-(phenylsulfonyl)benzenesulfonamide] | 1.4 | 0.9 | 
4 | O=S(=O)(NC1CCN(C(=S)c2ccc(C(F)(F)F)cc2)CC1)c1cc(S(=O)(=O)c2ccccc2)ccc1C(F)(F)F [Example 724, 5-(phenylsulfonyl)-2-(trifluoromethyl)-N-(1-{[4-(trifluoromethyl)phenyl]carbonothioyl}piperidin-4-yl)benzenesulfonamide] |  |  | fold induction at 10 µM: 1.7
5 | COc1ccc(S(=O)(=O)c2ccccc2)cc1S(=O)(=O)NCCCN(C)C [Example 239, N-[3-(dimethylamino)propyl]-2-methoxy-5-(phenylsulfonyl)benzenesulfonamide] | 1.2 | 1 | 
6 | Cc1ccc(S(=O)(=O)c2ccccc2)cc1S(=O)(=O)NCCCN1CCOCC1 [Example 206, 2-methyl-N-(3-morpholin-4-ylpropyl)-5-(phenylsulfonyl)benzenesulfonamide] | 2.2 | 0.5 | 
7 | O=S(=O)(c1ccccc1)c1ccc(Cl)c(S(=O)(=O)N2CCN(Cc3ccc4c(c3)OCO4)CC2)c1 [Example 637, 1-(1,3-benzodioxol-5-ylmethyl)-4-{[2-chloro-5-(phenylsulfonyl)phenyl]sulfonyl}piperazine] |  |  | fold induction at 15 µM [3]: 0.9; fold induction at 15 µM [4]: 1
8 | CC(C)c1ccc(S(=O)(=O)c2ccc(F)cc2)cc1S(=O)(=O)NCCN1CCCCC1 [Example 527, 5-[(4-fluorophenyl)sulfonyl]-2-isopropyl-N-(2-piperidin-1-ylethyl)benzenesulfonamide] |  |  | fold induction at 15 µM [3]: 2.3; fold induction at 15 µM [4]: 1.2
9 | CCOc1ccc(CCNS(=O)(=O)c2cc(S(=O)(=O)c3ccccc3)ccc2C)cc1OC [Example 55, N-[2-(4-ethoxy-3-methoxyphenyl)ethyl]-2-methyl-5-(phenylsulfonyl)benzenesulfonamide] |  |  | fold induction at 30 µM [5]: 3.1; fold induction at 30 µM [6]: 0.9
10 | Cc1ccc(S(=O)(=O)c2ccccc2)cc1S(=O)(=O)NCCCN1CCCC1=O [Example 212, 2-methyl-N-[3-(2-oxopyrrolidin-1-yl)propyl]-5-(phenylsulfonyl)benzenesulfonamide] | 2 | 0.9 | 
11 | COc1ccc(CCNS(=O)(=O)c2cc(S(=O)(=O)c3ccccc3)ccc2OC)cc1OC [Example 153, N-[2-(3,4-dimethoxyphenyl)ethyl]-2-methoxy-5-(phenylsulfonyl)benzenesulfonamide] | 1.5 | 1.1 | 
12 | CCc1ccc(S(=O)(=O)c2ccccc2)cc1S(=O)(=O)N(C)CCc1ccccc1 [Example 284, 2-ethyl-N-methyl-N-(2-phenylethyl)-5-(phenylsulfonyl)benzenesulfonamide] | 1.1 | 1.2 | 
13 | COc1ccccc1CCNS(=O)(=O)c1cc(S(=O)(=O)c2ccc(F)cc2)ccc1C [Example 4, 5-[(4-fluorophenyl)sulfonyl]-N-[2-(2-methoxyphenyl)ethyl]-2-methylbenzenesulfonamide] |  |  | fold induction at 30 µM [5]: 0.1; fold induction at 30 µM [6]: 0.1
14 | COc1ccc(S(=O)(=O)c2ccc(C)c(S(=O)(=O)NCCCn3ccnc3)c2)cc1 [Example 315, N-[3-(1H-imidazol-1-yl)propyl]-5-[(4-methoxyphenyl)sulfonyl]-2-methylbenzenesulfonamide] | 1.8 | 1.3 | 
15 | O=S(=O)(c1ccccc1)c1ccc(Cl)c(S(=O)(=O)N2CCC(N3CCCC3)CC2)c1 [Example 635, 1-{[2-chloro-5-(phenylsulfonyl)phenyl]sulfonyl}-4-pyrrolidin-1-ylpiperidine] |  |  | fold induction at 15 µM [3]: 2; fold induction at 15 µM [4]: 1.7
16 | CN(C)CCCNS(=O)(=O)c1cccc(S(=O)(=O)c2ccccc2)c1 [Example 196, N-[3-(dimethylamino)propyl]-3-(phenylsulfonyl)benzenesulfonamide] |  |  | fold induction at 30 µM [5]: 1.4; fold induction at 30 µM [6]: 1.3

Row | SMILES | fold induction at 15 µM [1] | fold induction at 15 µM [2] | further results
17 | COc1ccc(Br)cc1CCNS(=O)(=O)c1cc(S(=O)(=O)c2ccc(F)cc2)ccc1C [Example 30, N-[2-(5-bromo-2-methoxyphenyl)ethyl]-5-[(4-fluorophenyl)sulfonyl]-2-methylbenzenesulfonamide] | 2.4 | 0.9 | Fold Induction with SFRP-1 (Conc 30 μM, with SFRP-1, fold induction over SFRP-1 control, single dose): 1 fold; fold induction at 30 µM [5]: 1.7
18 | N#CCNS(=O)(=O)c1cc(S(=O)(=O)c2ccccc2)ccc1Cl [Example 663, 2-chloro-N-(cyanomethyl)-5-(phenylsulfonyl)benzenesulfonamide] |  |  | fold induction at 10 µM: 1
19 | Cc1cc(C)c(S(=O)(=O)c2ccc(F)cc2)cc1S(=O)(=O)NCCC1CCOCC1 [Example 333, 5-[(4-fluorophenyl)sulfonyl]-2,4-dimethyl-N-[2-(tetrahydro-2H-pyran-4-yl)ethyl]benzenesulfonamide] | 1.7 | 1 | 
20 | COc1ccccc1CCNS(=O)(=O)c1cc(S(=O)(=O)c2ccccc2)ccc1OC [Example 151, 2-methoxy-N-[2-(2-methoxyphenyl)ethyl]-5-(phenylsulfonyl)benzenesulfonamide] | 1.4 | 1.1 | 
21 | Cc1ccc(S(=O)(=O)c2ccccc2)cc1S(=O)(=O)NC1CCN(C(=O)C2CC2)CC1 [Example 475, N-[1-(cyclopropylcarbonyl)piperidin-4-yl]-2-methyl-5-(phenylsulfonyl)benzenesulfonamide] | 1.9 | 1.1 | 
22 | O=S(=O)(NCCCn1ccnc1)c1cc(S(=O)(=O)c2ccccc2)ccc1Cl [Example 336, 2-chloro-N-[3-(1H-imidazol-1-yl)propyl]-5-(phenylsulfonyl)benzenesulfonamide] | 2.8 | 1 | 
23 | Cc1ccc2c(c1)CCCN2C(=O)CCNS(=O)(=O)c1cc(S(=O)(=O)c2ccccc2)ccc1C [Example 669, 2-methyl-N-[3-(6-methyl-3,4-dihydroquinolin-1(2H)-yl)-3-oxopropyl]-5-(phenylsulfonyl)benzenesulfonamide] |  |  | fold induction at 10 µM: 0.9
24 | Cc1ccc(S(=O)(=O)c2cccs2)cc1S(=O)(=O)NCCCn1ccnc1 [Example 362, N-[3-(1H-imidazol-1-yl)propyl]-2-methyl-5-(2-thienylsulfonyl)benzenesulfonamide] | 2.4 | 1.1 | 
25 | CCN(C)c1ccc(S(=O)(=O)c2ccc(C)c(S(=O)(=O)NCCCn3ccnc3)c2)cc1 [Example 304, 5-({4-[ethyl(methyl)amino]phenyl}sulfonyl)-N-[3-(1H-imidazol-1-yl)propyl]-2-methylbenzenesulfonamide] | 1.7 | 1 | 
26 | Cc1ccc(S(=O)(=O)c2ccc(F)cc2)cc1S(=O)(=O)NCCc1c[nH]cn1 [Example 167, 5-[(4-fluorophenyl)sulfonyl]-N-[2-(1H-imidazol-4-yl)ethyl]-2-methylbenzenesulfonamide] | 3 | 1 | 
27 | COCCNS(=O)(=O)c1cccc(S(=O)(=O)c2ccccc2)c1 [Example 197, N-(2-methoxyethyl)-3-(phenylsulfonyl)benzenesulfonamide] |  |  | fold induction at 30 µM [5]: 1.1; fold induction at 30 µM [6]: 1.2
28 | Cc1ccc(S(=O)(=O)c2ccc(F)cc2)cc1S(=O)(=O)NCCN1CCCCC1 [Example 166, 5-[(4-fluorophenyl)sulfonyl]-2-methyl-N-(2-piperidin-1-ylethyl)benzenesulfonamide] | 2 | 1.1 | 
29 | Cc1ccc(S(=O)(=O)c2ccc(F)cc2)cc1S(=O)(=O)NCCC1CCOCC1 [Example 309, 5-[(4-fluorophenyl)sulfonyl]-2-methyl-N-(2-tetrahydro-2H-pyran-4-ylethyl)benzenesulfonamide] | 1.9 | 0.9 | 
30 | COc1cccc(CCNS(=O)(=O)c2cc(S(=O)(=O)c3ccccc3)ccc2OC)c1 [Example 152, 2-methoxy-N-[2-(3-methoxyphenyl)ethyl]-5-(phenylsulfonyl)benzenesulfonamide] | 1.6 | 1.1 | 
31 | CCc1ccc(S(=O)(=O)c2ccccc2)cc1S(=O)(=O)NC[C@H](C)c1ccccc1 [Example 268, 2-ethyl-N-[(2R)-2-phenylpropyl]-5-(phenylsulfonyl)benzenesulfonamide] | 3.6 | 1.1 | 

Reference: US20060276464A1, “Diarylsulfone sulfonamides and use thereof” (Wyeth, priority 2005, published 2006)
